Reference: paper PMC6009956, “Design, synthesis and biological activity of N^4-phenylsubstituted-7H-pyrrolo[2,3-d]pyrimidin-4-amines as dual inhibitors of aurora kinase A and epidermal growth factor receptor kinase” (Journal of Enzyme Inhibition and Medicinal Chemistry, 2017)
Read-outs that look alike come from different tables or passages of the source.

Legend:
aurora A kinase (AURKA) = target: T1, aurora A kinase (AURKA) (Homo sapiens, UniProt O14965); assay: ADP-Glo kinase assay, Aurora A; type: biochemical
T1 construct: purchased BPS Bioscience (assay run externally by the vendor)
T1 sequence (O14965 1-403): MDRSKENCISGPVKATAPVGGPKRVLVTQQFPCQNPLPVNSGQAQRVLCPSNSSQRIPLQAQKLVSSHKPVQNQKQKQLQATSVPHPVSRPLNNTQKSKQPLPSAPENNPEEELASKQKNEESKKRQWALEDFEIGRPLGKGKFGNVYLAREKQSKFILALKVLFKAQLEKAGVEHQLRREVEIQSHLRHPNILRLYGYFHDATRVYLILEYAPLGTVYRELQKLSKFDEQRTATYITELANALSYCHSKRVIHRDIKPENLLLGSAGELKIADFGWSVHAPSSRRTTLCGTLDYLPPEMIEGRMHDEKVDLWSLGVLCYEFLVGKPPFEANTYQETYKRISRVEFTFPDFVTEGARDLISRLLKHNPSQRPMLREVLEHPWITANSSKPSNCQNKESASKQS

EGFR = EGFR (Homo sapiens, UniProt P00533); assay: ADP-Glo kinase assay, EGFR; type: biochemical; set-up: purchased BPS Bioscience (assay run externally by the vendor)
EGFR, sequence (P00533 25-1210): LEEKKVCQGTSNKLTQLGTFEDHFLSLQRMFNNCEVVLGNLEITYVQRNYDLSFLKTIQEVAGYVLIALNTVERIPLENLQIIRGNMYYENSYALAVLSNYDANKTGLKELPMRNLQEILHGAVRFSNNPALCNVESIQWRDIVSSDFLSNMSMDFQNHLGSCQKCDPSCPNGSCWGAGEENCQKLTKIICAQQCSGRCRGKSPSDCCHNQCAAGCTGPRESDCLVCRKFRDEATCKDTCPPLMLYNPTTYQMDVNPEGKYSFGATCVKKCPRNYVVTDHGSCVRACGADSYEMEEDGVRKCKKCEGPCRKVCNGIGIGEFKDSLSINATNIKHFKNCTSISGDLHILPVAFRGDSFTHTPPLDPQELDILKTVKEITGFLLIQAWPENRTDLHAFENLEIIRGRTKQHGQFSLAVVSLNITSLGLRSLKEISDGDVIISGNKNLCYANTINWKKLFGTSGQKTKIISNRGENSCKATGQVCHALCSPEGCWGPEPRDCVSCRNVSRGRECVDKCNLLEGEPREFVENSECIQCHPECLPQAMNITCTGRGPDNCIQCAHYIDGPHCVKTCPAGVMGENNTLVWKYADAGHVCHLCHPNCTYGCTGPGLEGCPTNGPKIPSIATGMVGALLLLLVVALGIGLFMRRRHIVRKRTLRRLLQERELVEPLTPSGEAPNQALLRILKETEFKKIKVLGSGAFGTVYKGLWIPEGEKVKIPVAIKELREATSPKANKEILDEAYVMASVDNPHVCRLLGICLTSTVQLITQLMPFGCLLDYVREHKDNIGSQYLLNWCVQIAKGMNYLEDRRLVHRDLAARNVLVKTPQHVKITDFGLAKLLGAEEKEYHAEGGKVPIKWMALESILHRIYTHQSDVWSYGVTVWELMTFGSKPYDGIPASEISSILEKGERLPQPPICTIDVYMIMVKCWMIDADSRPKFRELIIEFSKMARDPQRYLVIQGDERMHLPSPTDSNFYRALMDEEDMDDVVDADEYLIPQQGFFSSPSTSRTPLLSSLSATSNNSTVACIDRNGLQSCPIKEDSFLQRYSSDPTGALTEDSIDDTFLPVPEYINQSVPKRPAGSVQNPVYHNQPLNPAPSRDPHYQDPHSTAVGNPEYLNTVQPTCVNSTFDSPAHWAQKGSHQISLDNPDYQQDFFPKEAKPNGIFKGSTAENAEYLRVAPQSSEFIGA

Question: For Nc1nc(Nc2cccc(Br)c2)c2cc[nH]c2n1 [Compound 8, N^4-(3-bromophenyl)-7H-pyrrolo[2,3-d]pyrimidine-2,4-diamine], which “Fold less potent than compound 2 against AURKA” value (aurora A kinase (AURKA)) is on record?
Answer: approximately two-fold

Question: What about the IC50 (aurora A kinase (AURKA); 10 µM ATP, triplicate, read-out: AURKA IC50 ± SD) of the same molecule?
Answer: 4.54 ± 0.93 µM

Question: And the IC50 (aurora A kinase (AURKA); 10 µM ATP/0.2 mg/ml Kemptide, read-out: Aurora A IC50 (dose-response curve, supplement))?
Answer: 4.5 µM

Question: What about the “Aurora A % Activity Set1” value (aurora A kinase (AURKA); Log[nM] 0) of the same molecule?
Answer: 103%

Question: What about the “Aurora A % Activity Set2” value (aurora A kinase (AURKA); Log[nM] 0) of the same molecule?
Answer: 107%

Question: And the “Aurora A % Activity Set3” value (aurora A kinase (AURKA); Log[nM] 0)?
Answer: 99%

Question: And the “Aurora A % Activity Set1” value (aurora A kinase (AURKA); Log[nM] 1.0)?
Answer: 110%

Question: What about the “Aurora A % Activity Set2” value (aurora A kinase (AURKA); Log[nM] 1.0) of the same molecule?
Answer: 101%

Question: What about the “Aurora A % Activity Set3” value (aurora A kinase (AURKA); Log[nM] 1.0) of the same molecule?
Answer: 111%

Question: What about the “Aurora A % Activity Set1” value (aurora A kinase (AURKA); Log[nM] 1.5) of the same molecule?
Answer: 109%

Question: What about the “Aurora A % Activity Set2” value (aurora A kinase (AURKA); Log[nM] 1.5) of the same molecule?
Answer: 108%

Question: And the “Aurora A % Activity Set3” value (aurora A kinase (AURKA); Log[nM] 1.5)?
Answer: 105%

Question: And the “Aurora A % Activity Set1” value (aurora A kinase (AURKA); Log[nM] 2.0)?
Answer: 109%

Question: And the “Aurora A % Activity Set2” value (aurora A kinase (AURKA); Log[nM] 2.0)?
Answer: 109%

Question: And the “Aurora A % Activity Set3” value (aurora A kinase (AURKA); Log[nM] 2.0)?
Answer: 109%

Question: What about the “Aurora A % Activity Set1” value (aurora A kinase (AURKA); Log[nM] 2.5) of the same molecule?
Answer: 96%

Question: And the “Aurora A % Activity Set2” value (aurora A kinase (AURKA); Log[nM] 2.5)?
Answer: 101%

Question: And the “Aurora A % Activity Set3” value (aurora A kinase (AURKA); Log[nM] 2.5)?
Answer: 113%

Question: And the “Aurora A % Activity Set1” value (aurora A kinase (AURKA); Log[nM] 3.0)?
Answer: 84%

Question: And the “Aurora A % Activity Set2” value (aurora A kinase (AURKA); Log[nM] 3.0)?
Answer: 80%

Question: And the “Aurora A % Activity Set3” value (aurora A kinase (AURKA); Log[nM] 3.0)?
Answer: 92%

Question: What about the “Aurora A % Activity Set1” value (aurora A kinase (AURKA); Log[nM] 3.5) of the same molecule?
Answer: 55%

Question: And the “Aurora A % Activity Set2” value (aurora A kinase (AURKA); Log[nM] 3.5)?
Answer: 57%

Question: What about the “Aurora A % Activity Set3” value (aurora A kinase (AURKA); Log[nM] 3.5) of the same molecule?
Answer: 59%

Question: And the “Aurora A % Activity Set1” value (aurora A kinase (AURKA); Log[nM] 4.0)?
Answer: 30%

Question: And the “Aurora A % Activity Set2” value (aurora A kinase (AURKA); Log[nM] 4.0)?
Answer: 28%

Question: What about the “Aurora A % Activity Set3” value (aurora A kinase (AURKA); Log[nM] 4.0) of the same molecule?
Answer: 29%

Question: And the “Aurora A % Activity Set1” value (aurora A kinase (AURKA); Log[nM] 4.5)?
Answer: 11%

Question: And the “Aurora A % Activity Set2” value (aurora A kinase (AURKA); Log[nM] 4.5)?
Answer: 11%

Question: What about the “Aurora A % Activity Set3” value (aurora A kinase (AURKA); Log[nM] 4.5) of the same molecule?
Answer: 11%

Question: What about the “Aurora A % Activity Set1” value (aurora A kinase (AURKA); Log[nM] 5.0) of the same molecule?
Answer: 8%

Question: What about the “Aurora A % Activity Set2” value (aurora A kinase (AURKA); Log[nM] 5.0) of the same molecule?
Answer: 7%

Question: What about the “Aurora A % Activity Set3” value (aurora A kinase (AURKA); Log[nM] 5.0) of the same molecule?
Answer: 8%

Question: What about the “Fold less potent than compound 7 against EGFR” value (EGFR) of the same molecule?
Answer: 100 fold

Question: And the IC50 (EGFR; 10 µM ATP, triplicate, read-out: EGFR IC50 ± SD)?
Answer: 0.384 ± 0.0655 µM

Question: And the IC50 (EGFR; 10 µM ATP/0.2 mg/ml Poly-Glu-Tyr, read-out: EGFR IC50 (dose-response curve, supplement))?
Answer: 0.357 µM

Question: And the “EGFR % Activity Set1” value (EGFR; Log[nM] 0)?
Answer: 97%

Question: What about the “EGFR % Activity Set2” value (EGFR; Log[nM] 0) of the same molecule?
Answer: 99%

Question: What about the “EGFR % Activity Set3” value (EGFR; Log[nM] 0) of the same molecule?
Answer: 99%

Question: And the “EGFR % Activity Set1” value (EGFR; Log[nM] 1.0)?
Answer: 95%

Question: And the “EGFR % Activity Set2” value (EGFR; Log[nM] 1.0)?
Answer: 102%

Question: And the “EGFR % Activity Set3” value (EGFR; Log[nM] 1.0)?
Answer: 91%

Question: What about the “EGFR % Activity Set1” value (EGFR; Log[nM] 1.5) of the same molecule?
Answer: 93%

Question: And the “EGFR % Activity Set2” value (EGFR; Log[nM] 1.5)?
Answer: 102%

Question: What about the “EGFR % Activity Set3” value (EGFR; Log[nM] 1.5) of the same molecule?
Answer: 84%

Question: What about the “EGFR % Activity Set1” value (EGFR; Log[nM] 2.0) of the same molecule?
Answer: 80%

Question: What about the “EGFR % Activity Set2” value (EGFR; Log[nM] 2.0) of the same molecule?
Answer: 83%

Question: And the “EGFR % Activity Set3” value (EGFR; Log[nM] 2.0)?
Answer: 82%

Question: And the “EGFR % Activity Set1” value (EGFR; Log[nM] 2.5)?
Answer: 51%

Question: And the “EGFR % Activity Set2” value (EGFR; Log[nM] 2.5)?
Answer: 49%

Question: What about the “EGFR % Activity Set3” value (EGFR; Log[nM] 2.5) of the same molecule?
Answer: 53%

Question: And the “EGFR % Activity Set1” value (EGFR; Log[nM] 3.0)?
Answer: 26%

Question: What about the “EGFR % Activity Set2” value (EGFR; Log[nM] 3.0) of the same molecule?
Answer: 23%

Question: What about the “EGFR % Activity Set3” value (EGFR; Log[nM] 3.0) of the same molecule?
Answer: 27%

Question: What about the “EGFR % Activity Set1” value (EGFR; Log[nM] 3.5) of the same molecule?
Answer: 12%

Question: And the “EGFR % Activity Set2” value (EGFR; Log[nM] 3.5)?
Answer: 9%

Question: What about the “EGFR % Activity Set3” value (EGFR; Log[nM] 3.5) of the same molecule?
Answer: 10%

Question: What about the “EGFR % Activity Set1” value (EGFR; Log[nM] 4.0) of the same molecule?
Answer: 4%

Question: And the “EGFR % Activity Set2” value (EGFR; Log[nM] 4.0)?
Answer: 5%

Question: What about the “EGFR % Activity Set3” value (EGFR; Log[nM] 4.0) of the same molecule?
Answer: 4%

Question: What about the “EGFR % Activity Set1” value (EGFR; Log[nM] 4.5) of the same molecule?
Answer: 2%

Question: What about the “EGFR % Activity Set2” value (EGFR; Log[nM] 4.5) of the same molecule?
Answer: 3%

Question: What about the “EGFR % Activity Set3” value (EGFR; Log[nM] 4.5) of the same molecule?
Answer: 1%

Question: And the “EGFR % Activity Set1” value (EGFR; Log[nM] 5.0)?
Answer: 1%

Question: And the “EGFR % Activity Set2” value (EGFR; Log[nM] 5.0)?
Answer: 1%

Question: And the “EGFR % Activity Set3” value (EGFR; Log[nM] 5.0)?
Answer: 2%
